Like-named read-outs stand apart in the source and are kept apart here.
Experiments:
[1] = biological target: T1, Serotonin 5-HT2C (Homo sapiens, UniProt P28335); assay: PDSP binding screen
T1 sequence (P28335 33-458): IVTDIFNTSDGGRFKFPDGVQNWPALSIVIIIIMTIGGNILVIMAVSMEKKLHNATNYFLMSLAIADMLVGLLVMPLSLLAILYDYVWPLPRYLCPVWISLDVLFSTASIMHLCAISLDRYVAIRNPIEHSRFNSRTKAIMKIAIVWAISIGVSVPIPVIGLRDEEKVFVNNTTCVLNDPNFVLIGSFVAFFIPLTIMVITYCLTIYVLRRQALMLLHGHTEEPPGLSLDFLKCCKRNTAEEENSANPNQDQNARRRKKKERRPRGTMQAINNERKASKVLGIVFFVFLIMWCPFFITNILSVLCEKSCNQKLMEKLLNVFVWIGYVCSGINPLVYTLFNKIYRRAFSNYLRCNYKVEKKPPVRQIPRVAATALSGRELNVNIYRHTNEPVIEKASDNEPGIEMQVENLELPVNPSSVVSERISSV

[2] = biological target: Histamine H2 (Homo sapiens, UniProt P25021); assay: PDSP binding screen; conditions: for inhibition at 10 µM: read-out: Ki (nM) or % inhibition at 10 µM: H2
Histamine H2, sequence (P25021 whole entry): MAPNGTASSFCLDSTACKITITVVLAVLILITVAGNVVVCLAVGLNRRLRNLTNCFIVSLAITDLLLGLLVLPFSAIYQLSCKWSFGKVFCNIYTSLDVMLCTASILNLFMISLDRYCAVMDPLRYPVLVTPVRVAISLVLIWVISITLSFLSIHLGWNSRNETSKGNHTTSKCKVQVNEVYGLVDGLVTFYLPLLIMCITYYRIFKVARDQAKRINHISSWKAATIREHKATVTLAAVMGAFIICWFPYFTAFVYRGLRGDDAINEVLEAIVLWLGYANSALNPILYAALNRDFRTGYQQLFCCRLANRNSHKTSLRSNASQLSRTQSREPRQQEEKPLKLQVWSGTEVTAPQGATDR

[3] = biological target: T2, human D3 receptors (Homo sapiens, UniProt P35462); assay: β-arrestin recruitment assay (antagonist mode, competition with dopamine); assay type: cell-based; design: expressed in transfected cells; conditions: for Emax: percentage of the maximum inhibition of dopamine at EC80 concentration, read-out: Imax (% Control)
Experimental: (§1) Two different assays were used to evaluate the properties of the analogs described above. The receptor binding affinity was measured by radioligand binding assays using [^125I]IABN with D2 or D3 receptors highly expressed HEK293 cells. The functional activity of the analogs was determined using a β-arrestin recruitment assay. The assay was initially conducted in agonist binding mode to confirm that they function as antagonists at the D3 receptor. Once this efficacy was confirmed, the assay was conducted in antagonist mode to determine the ability of the antagonist to compete with dopamine at the D3 receptor. The results of the antagonist mode assay are reported as IC50 values.
CHO-K1 cells which were overexpressed human D3 receptors were cultured in assaycomplete^TM cell culture kit 107. Cells were seeded at a density of 25,000 cells per well of 96-well plate, and incubated at 5% CO2, 37 °C. Two days later, test compounds were dissolved in DMSO, and diluted with 11-point series in phosphate-buffered saline (PBS). Prepared compounds were added to the cells, and it was incubated for 30 min at 5% CO2, 37 °C. Then, cells were treated with 30 nM (EC80) of dopamine, and the plate was incubated another 90 min. PathHunter^TM detection reagent was added to each well, and then plate was incubated for 80 min at RT in the dark. The chemiluminescent signal was measured by PerkinElmer Enspire plate reader (PerkinElmer, Boston, MA). Data were analyzed by Prism followed by non-linear regression.

[4] = biological target: Serotonin 5-HT7A (Homo sapiens, UniProt P34969); assay: PDSP binding screen; conditions: for inhibition at 10 µM: read-out: Ki (nM) or % inhibition at 10 µM: 5-HT7A
[5] = biological target: Histamine H3 (Homo sapiens, UniProt Q9Y5N1); assay: PDSP binding screen; conditions: for inhibition at 10 µM: read-out: Ki (nM) or % inhibition at 10 µM: H3
Histamine H3, sequence (Q9Y5N1 whole entry): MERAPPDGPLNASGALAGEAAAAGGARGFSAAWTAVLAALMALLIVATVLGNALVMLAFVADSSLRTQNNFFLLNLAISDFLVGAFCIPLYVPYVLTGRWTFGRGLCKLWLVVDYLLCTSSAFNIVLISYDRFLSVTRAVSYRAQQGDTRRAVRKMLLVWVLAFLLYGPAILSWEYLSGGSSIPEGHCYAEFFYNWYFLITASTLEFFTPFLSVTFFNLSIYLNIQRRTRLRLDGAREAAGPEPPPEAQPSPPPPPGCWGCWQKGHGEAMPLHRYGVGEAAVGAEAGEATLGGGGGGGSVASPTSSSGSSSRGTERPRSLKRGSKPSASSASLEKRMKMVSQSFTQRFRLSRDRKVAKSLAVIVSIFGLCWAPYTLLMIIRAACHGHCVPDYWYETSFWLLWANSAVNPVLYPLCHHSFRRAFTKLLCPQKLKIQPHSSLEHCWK

[6] = biological target: Serotonin 5-HT6 (Homo sapiens, UniProt P50406); assay: PDSP binding screen
Serotonin 5-HT6, sequence (P50406 whole entry): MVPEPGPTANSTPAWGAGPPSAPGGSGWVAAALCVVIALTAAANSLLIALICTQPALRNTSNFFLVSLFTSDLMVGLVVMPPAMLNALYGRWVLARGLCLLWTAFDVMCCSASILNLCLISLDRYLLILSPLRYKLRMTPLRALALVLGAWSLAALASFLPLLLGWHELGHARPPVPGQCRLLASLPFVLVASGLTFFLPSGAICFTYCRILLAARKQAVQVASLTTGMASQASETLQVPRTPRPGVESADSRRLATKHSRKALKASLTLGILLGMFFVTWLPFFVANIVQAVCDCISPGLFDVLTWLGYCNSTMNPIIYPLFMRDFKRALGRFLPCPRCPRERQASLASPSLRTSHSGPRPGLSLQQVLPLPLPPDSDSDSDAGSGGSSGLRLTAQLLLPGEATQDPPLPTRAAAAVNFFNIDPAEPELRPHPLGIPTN

[7] = biological target: Dopamine D2 (Homo sapiens, UniProt P14416); assay: PDSP binding screen
Dopamine D2, sequence (P14416 whole entry): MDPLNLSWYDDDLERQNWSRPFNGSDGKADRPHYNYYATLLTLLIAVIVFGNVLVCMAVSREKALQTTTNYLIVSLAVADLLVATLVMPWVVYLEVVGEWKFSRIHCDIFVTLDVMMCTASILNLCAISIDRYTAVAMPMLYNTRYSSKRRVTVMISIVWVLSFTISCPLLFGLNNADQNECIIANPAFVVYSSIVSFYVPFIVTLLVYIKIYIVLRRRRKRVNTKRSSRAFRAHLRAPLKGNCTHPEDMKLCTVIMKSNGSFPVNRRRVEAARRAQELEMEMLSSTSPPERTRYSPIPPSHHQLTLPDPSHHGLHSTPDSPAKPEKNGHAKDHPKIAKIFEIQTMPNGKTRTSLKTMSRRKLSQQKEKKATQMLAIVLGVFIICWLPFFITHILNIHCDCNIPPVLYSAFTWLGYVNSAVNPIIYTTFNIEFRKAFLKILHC

[8] = biological target: Opioid MOR (Homo sapiens, UniProt P35372); assay: PDSP binding screen; conditions: for inhibition at 10 µM: read-out: Ki (nM) or % inhibition at 10 µM: MOR
[9] = biological target: Serotonin 5-HT2B (Homo sapiens, UniProt P41595); assay: PDSP binding screen
Serotonin 5-HT2B, sequence (P41595 whole entry): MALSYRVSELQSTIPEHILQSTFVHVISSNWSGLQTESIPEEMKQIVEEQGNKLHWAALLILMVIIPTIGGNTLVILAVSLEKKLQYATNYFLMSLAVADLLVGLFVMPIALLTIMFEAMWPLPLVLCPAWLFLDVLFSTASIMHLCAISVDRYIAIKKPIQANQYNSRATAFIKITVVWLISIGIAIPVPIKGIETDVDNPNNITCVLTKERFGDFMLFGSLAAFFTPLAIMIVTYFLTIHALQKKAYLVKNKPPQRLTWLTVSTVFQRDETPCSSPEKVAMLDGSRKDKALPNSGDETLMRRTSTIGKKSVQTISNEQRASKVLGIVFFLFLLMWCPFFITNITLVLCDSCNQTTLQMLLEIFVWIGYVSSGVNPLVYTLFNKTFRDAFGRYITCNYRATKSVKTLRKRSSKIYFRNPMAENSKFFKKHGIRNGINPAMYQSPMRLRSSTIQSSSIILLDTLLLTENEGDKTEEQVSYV

[10] = biological target: Adrenergic beta2 (Homo sapiens, UniProt P07550); assay: PDSP binding screen; conditions: for inhibition at 10 µM: read-out: Ki (nM) or % inhibition at 10 µM: beta2
[11] = biological target: Serotonin 5-HT1B (Homo sapiens, UniProt P28222); assay: PDSP binding screen; conditions: for inhibition at 10 µM: read-out: Ki (nM) or % inhibition at 10 µM: 5-HT1B
Serotonin 5-HT1B, sequence (P28222 whole entry): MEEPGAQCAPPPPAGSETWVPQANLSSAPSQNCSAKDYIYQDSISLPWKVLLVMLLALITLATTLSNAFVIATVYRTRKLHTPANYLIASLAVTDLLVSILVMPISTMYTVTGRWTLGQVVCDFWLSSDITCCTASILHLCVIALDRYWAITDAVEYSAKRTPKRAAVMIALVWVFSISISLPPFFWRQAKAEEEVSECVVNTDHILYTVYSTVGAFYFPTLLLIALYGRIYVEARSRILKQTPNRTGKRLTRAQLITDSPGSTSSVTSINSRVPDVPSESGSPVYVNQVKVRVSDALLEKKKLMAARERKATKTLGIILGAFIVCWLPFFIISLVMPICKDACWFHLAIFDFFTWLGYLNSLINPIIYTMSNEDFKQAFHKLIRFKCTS

[12] = biological target: Serotonin 5-HT2A (Homo sapiens, UniProt P28223); assay: PDSP binding screen
Serotonin 5-HT2A, sequence (P28223 whole entry): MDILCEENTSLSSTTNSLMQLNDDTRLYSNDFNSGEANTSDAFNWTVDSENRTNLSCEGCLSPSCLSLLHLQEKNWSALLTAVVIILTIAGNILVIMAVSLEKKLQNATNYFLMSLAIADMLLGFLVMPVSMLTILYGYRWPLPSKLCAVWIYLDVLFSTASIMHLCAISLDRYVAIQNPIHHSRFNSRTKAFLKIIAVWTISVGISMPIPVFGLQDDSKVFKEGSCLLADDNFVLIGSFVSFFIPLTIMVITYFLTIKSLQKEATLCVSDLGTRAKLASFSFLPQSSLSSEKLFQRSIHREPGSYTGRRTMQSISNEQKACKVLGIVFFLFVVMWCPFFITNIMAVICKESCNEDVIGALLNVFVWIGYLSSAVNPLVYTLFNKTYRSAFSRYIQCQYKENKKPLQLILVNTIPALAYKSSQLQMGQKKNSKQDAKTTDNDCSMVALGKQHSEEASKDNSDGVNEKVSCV

[13] = biological target: Dopamine D5 (Homo sapiens, UniProt P21918); assay: PDSP binding screen; conditions: for inhibition at 10 µM: read-out: Ki (nM) or % inhibition at 10 µM: D5
Dopamine D5, sequence (P21918 whole entry): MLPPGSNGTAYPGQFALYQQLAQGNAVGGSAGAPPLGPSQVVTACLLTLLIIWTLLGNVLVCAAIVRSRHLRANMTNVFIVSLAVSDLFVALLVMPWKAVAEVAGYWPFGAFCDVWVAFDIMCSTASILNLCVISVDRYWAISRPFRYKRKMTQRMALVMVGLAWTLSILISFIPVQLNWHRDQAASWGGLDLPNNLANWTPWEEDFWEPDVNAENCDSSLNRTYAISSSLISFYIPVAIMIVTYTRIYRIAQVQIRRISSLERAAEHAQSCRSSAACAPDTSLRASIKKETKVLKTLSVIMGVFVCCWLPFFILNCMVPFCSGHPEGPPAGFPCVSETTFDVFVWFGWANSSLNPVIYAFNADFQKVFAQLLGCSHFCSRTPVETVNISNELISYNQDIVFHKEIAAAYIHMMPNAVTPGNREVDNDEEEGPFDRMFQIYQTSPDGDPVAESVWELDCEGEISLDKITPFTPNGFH

[14] = biological target: T2, human D3 receptors; assay: Radioligand binding assay with [125I]IABN, D3 receptor; design: expressed in transfected cells; host or cells: HEK293; conditions: for Ki: D3 receptors expressed in HEK cells, mean ± SEM, three experiments, HCl salts; for D2/D3: selectivity ratio of Ki D2 / Ki D3 (fold)
Experimental: as §1
Ki values for D2 and D3 receptors were measured using [^125I]IABN in human D2 and D3 receptors expressed in HEK cells, respectively. A filtration binding assay was used to characterize membrane-associated receptor binding properties. The details for the procedures were described in the literature.

[15] = biological target: T3, Serotonin 5-HT1E (Homo sapiens, UniProt P28566); assay: PDSP binding screen; conditions: read-out: Ki (nM) or % inhibition at 10 µM: 5-HT1E
T3 construct: Psychoactive Drug Screening Program (PDSP)
From the text: (§2) Based on the results in the dopamine receptor radioligand binding assays, nine flexible-based compounds were selected for further evaluation for off-target binding with other GPCRs through the Psychoactive Drug Screening Program (PDSP) (Supplemental Table S2). […] For example, many of the N-aryl piperazine-based analogs that our group developed in the past for either the D2 or D3 receptor had high affinity for the 5-HT1A receptor [55, 56, 57, 58]. […] This mitochondrial-based protein is typically used as a target for imaging neuroinflammation. The results of the PDSP-binding assays also confirmed the data obtained in our lab for the binding of this panel of nine compounds to D2 and D3 receptors (Supplemental Table S2).

[16] = biological target: T4, Serotonin transporter (SERT) (Homo sapiens, UniProt P31645); assay: PDSP binding screen; conditions: for inhibition at 10 µM: read-out: Ki (nM) or % inhibition at 10 µM: Serotonin transporter (SERT); for Ki: PDSP, HCl salts
T4 construct: Psychoactive Drug Screening Program (PDSP)
T4 sequence (P31645 whole entry, species assumed): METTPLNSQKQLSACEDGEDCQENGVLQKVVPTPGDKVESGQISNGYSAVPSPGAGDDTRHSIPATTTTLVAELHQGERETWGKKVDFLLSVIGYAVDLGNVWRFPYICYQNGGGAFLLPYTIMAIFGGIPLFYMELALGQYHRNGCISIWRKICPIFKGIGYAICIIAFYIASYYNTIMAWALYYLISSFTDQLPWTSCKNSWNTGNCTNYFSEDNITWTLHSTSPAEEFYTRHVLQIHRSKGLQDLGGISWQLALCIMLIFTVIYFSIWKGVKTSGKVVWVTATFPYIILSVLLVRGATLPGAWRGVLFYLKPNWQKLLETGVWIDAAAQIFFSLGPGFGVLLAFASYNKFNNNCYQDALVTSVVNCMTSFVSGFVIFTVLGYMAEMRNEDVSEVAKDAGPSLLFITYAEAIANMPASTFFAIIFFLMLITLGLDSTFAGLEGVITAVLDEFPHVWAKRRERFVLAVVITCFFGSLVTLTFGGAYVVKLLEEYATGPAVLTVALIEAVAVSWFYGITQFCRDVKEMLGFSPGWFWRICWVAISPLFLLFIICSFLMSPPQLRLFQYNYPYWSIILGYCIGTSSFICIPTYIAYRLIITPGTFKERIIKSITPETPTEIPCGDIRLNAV
From the text: as §2

[17] = biological target: T5, Opioid DOR (Homo sapiens, UniProt P41143); assay: PDSP binding screen; conditions: read-out: Ki (nM) or % inhibition at 10 µM: DOR
T5 construct: Psychoactive Drug Screening Program (PDSP)
T5 sequence (P41143 whole entry): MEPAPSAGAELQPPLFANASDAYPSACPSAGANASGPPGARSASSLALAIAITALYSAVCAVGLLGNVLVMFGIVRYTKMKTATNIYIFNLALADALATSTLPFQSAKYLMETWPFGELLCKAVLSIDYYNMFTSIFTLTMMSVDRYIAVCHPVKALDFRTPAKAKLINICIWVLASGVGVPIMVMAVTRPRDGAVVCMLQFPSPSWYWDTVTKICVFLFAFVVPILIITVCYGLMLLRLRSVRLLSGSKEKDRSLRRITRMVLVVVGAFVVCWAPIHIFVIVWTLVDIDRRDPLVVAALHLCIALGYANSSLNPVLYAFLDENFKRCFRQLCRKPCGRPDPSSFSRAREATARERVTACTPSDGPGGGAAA
From the text: as §2

[18] = biological target: T6, Serotonin 5-HT5A (Homo sapiens, UniProt P47898); assay: PDSP binding screen; conditions: read-out: Ki (nM) or % inhibition at 10 µM: 5-HT5A
T6 construct: Psychoactive Drug Screening Program (PDSP)
T6 sequence (P47898 whole entry): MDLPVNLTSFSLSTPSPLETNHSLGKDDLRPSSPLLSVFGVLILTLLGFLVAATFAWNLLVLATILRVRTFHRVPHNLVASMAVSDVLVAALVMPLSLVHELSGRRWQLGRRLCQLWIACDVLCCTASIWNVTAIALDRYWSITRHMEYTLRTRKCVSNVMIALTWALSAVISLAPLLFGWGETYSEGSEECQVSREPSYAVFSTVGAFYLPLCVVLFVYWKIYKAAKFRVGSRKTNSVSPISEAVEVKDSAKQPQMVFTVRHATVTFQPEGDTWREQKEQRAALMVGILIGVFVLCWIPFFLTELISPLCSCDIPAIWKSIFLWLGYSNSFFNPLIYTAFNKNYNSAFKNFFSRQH
From the text: as §2

[19] = biological target: Histamine H4 (Homo sapiens, UniProt Q9H3N8); assay: PDSP binding screen; conditions: for inhibition at 10 µM: read-out: Ki (nM) or % inhibition at 10 µM: H4
[20] = potency for D3 receptors, CHO-K1 cells, vs 30 nM (EC80) dopamine, mean ± SD, three experiments, read-out: IC50
[21] = [125I]IABN, read-out: Ki ± SEM (nM) D3

| SMILES | Ki [1] | Ki [2] | Emax [3] | inhibition at 10 µM [4] | Ki [5] | Ki [6] | Ki [7] | Ki [8] | Ki [9] | Ki [10] | Ki [11] | Ki [12] | D2/D3 [14] | inhibition at 10 µM [16] | inhibition at 10 µM [17] | IC50 [3, 20] | Ki [14, 21] | inhibition at 10 µM ([15]; PDSP, HCl salts) | inhibition at 10 µM ([18]; PDSP, HCl salts) | inhibition at 10 µM [19] | also measured |
| --- | --- | --- | --- | --- | --- | --- | --- | --- | --- | --- | --- | --- | --- | --- | --- | --- | --- | --- | --- | --- | --- |
| CCN(CCCNC(=O)c1ccc(-c2cccs2)cc1)CCNC(=O)c1cc(Br)cc(OC)c1OC [9a, 5-Bromo-N-(2-(ethyl(3-(4-(thiophen-2-yl)benzamido)propyl)amino)ethyl)-2,3-dimethoxybenzamide] | 0.577 µM | 2.61 µM | 67.3 ± 18.9% | < 50% | 5.58 µM | 0.287 µM | 0.232 µM | 1.56 µM | 0.187 µM | 0.669 µM | 0.905 µM | 0.222 µM | 169 | < 50% | < 50% | – | – | – | – | – | IC50 [3]: 0.014 ± 0.0074 µM; Ki [13]: 1.47 µM; Ki ([14]; Ki ± SEM (nM) D3, [125I]IABN): 1 ± 0.01 nM; inhibition at 10 µM [15]: < 50%; inhibition at 10 µM [18]: < 50%; Ki [19]: 6.42 µM |
| CCN(CCCNC(=O)c1ccc(-c2ccncc2)cc1)CCNC(=O)c1cc(Br)cc(OC)c1OC [21c, 5-Bromo-N-(2-(ethyl(3-(4-(pyridin-4-yl)benzamido)propyl)amino)ethyl)-2,3-dimethoxybenzamide] | 1.5 µM | – | 78.2 ± 18% | < 50% | 4.73 µM | 1.86 µM | 0.074 µM | – | 0.157 µM | – | – | 0.727 µM | 97.3 | < 50% | – | 0.0013 ± 0.001 µM | 1.1 ± 0.1 nM | < 50% | < 50% | < 50% | inhibition at 10 µM [2]: < 50%; inhibition at 10 µM [8]: < 50%; inhibition at 10 µM [10]: < 50%; inhibition at 10 µM [11]: < 50%; Ki [13]: > 10 µM; inhibition at 10 µM ([17]; PDSP, HCl salts): < 50% |
| CCCN(CCCNC(=O)c1ccc(-c2cccs2)cc1)CCNC(=O)c1cc(Br)cc(OC)c1OC [20a, 5-Bromo-2,3-dimethoxy-N-(2-(propyl(3-(4-(thiophen-2-yl)benzamido)propyl)amino)ethyl)benzamide] | 2.02 µM | 1.65 µM | 88.1 ± 20.4% | < 50% | – | 0.258 µM | 0.185 µM | 3.02 µM | 0.17 µM | 5.83 µM | 1.05 µM | 0.617 µM | 110 | – | < 50% | 0.0265 ± 0.0129 µM | 2.7 ± 0.4 nM | < 50% | < 50% | – | inhibition at 10 µM [5]: < 50%; inhibition at 10 µM [13]: < 50%; Ki [16]: 5.85 µM; Ki [19]: 3.46 µM |
| CCN(CCCNC(=O)c1ccc(-c2ccsc2)cc1)CCNC(=O)c1cc(Br)cc(OC)c1OC [21g, 5-Bromo-N-(2-(ethyl(3-(4-(thiophen-3-yl)benzamido)propyl)amino)ethyl)-2,3-dimethoxybenzamide] | 0.354 µM | 2.48 µM | 50.1 ± 20.9% | – | 4.81 µM | 0.363 µM | 0.17 µM | 2.16 µM | 0.189 µM | 0.616 µM | 1.06 µM | 0.276 µM | 125 | < 50% | < 50% | 0.0368 ± 0.0357 µM | 2.5 ± 0.3 nM | < 50% | < 50% | < 50% | Ki [4]: 2.25 µM; Ki [13]: 8.69 µM |
| CCN(CCCNC(=O)c1cn2ccccc2n1)CCNC(=O)c1cc(Br)cc(OC)c1OC [21e, N-(3-((2-(5-Bromo-2,3-dimethoxybenzamido)ethyl)(ethyl)amino)propyl)imidazo[1,2-a]pyridine-2-carboxamide] | 5.78 µM | – | 85.4 ± 6% | < 50% | – | 2.33 µM | – | – | 0.443 µM | – | – | 1.33 µM | 50.7 | < 50% | < 50% | 0.0043 ± 0.0025 µM | 2.8 ± 0.5 nM | < 50% | < 50% | < 50% | inhibition at 10 µM [2]: < 50%; inhibition at 10 µM [5]: < 50%; inhibition at 10 µM ([7]; read-out: Ki (nM) or % inhibition at 10 µM: D2): < 50%; inhibition at 10 µM [8]: < 50%; inhibition at 10 µM [10]: < 50%; inhibition at 10 µM [11]: < 50%; inhibition at 10 µM [13]: < 50% |
| CCN(CCCNC(=O)c1ccc2ccccc2c1)CCNC(=O)c1cc(Br)cc(OC)c1OC [21a, N-(3-((2-(5-Bromo-2,3-dimethoxybenzamido)ethyl)(ethyl)amino)propyl)-2-naphthamide] | 1.33 µM | 2.79 µM | 66.1 ± 17.6% | < 50% | – | 0.73 µM | 0.216 µM | 1.08 µM | 0.118 µM | – | – | 1.24 µM | 141 | – | < 50% | 0.0164 ± 0.0077 µM | 1.2 ± 0.2 nM | < 50% | < 50% | < 50% | inhibition at 10 µM [5]: < 50%; inhibition at 10 µM [10]: < 50%; inhibition at 10 µM [11]: < 50%; inhibition at 10 µM [13]: < 50%; Ki [16]: 3.01 µM |
